Measured values from publication PMC10787398, “Simultaneous determination of colistin sulfate and tigecycline in human plasma by liquid chromatography-tandem mass spectrometry method” (BMC Chemistry, 2024).

Columns and labels:
[1] = Plasma trough and peak concentrations in patients on intravenous polymyxin and tigecycline (HPLC-MS/MS); settings: First dose 100 mg maintenance dose 50 mg q12h iv, plasma, HPLC-MS/MS; for Tigecycline Peak concentration: 30 min after 7th administration; for Tigecycline Trough concentration: before 7th administration
Source text: Plasma samples were collected from patients receiving simultaneous intravenous polymyxin and tigecycline treatment. Inclusion criteria: ① Patients receiving simultaneous intravenous polymyxin and tigecycline treatment; ② Age ≥ 18 years; ③ Patients who consent to the monitoring of polymyxin and tigecycline blood drug concentrations during treatment. Exclusion criteria: ① Pregnant or lactating women; ② Treatment duration < 3 days; ③ Local administration; ④ Blood dialysis treatment. Once the blood drug concentration reached a steady state, 3 ml of venous blood was collected before and 30 min after the seventh administration to measure the peak and trough concentrations. This study was conducted with approval from the Ethics Committee of Second Hospital of Hebei Medical University (2020-R551). This study was conducted in accordance with the declaration of Helsinki.
Two hundred microliters of the plasma sample were adopted, with 20 µL of the internal standard added, and it was vortexed for 20 s. Two hundred microliters of 5% trichloroacetic acid was added for acidification and vortexed for 10 s. Two hundred microliters of methanol was added for extraction, vortexed for 2 min, and centrifuged at 10,900 r/min for 5 min. Two hundred microliters of the supernatant were aspirated into the injection bottle, and 10 µL of the sample was injected for the HPLC–MS/MS analysis.
All patients received an initial dose of 100 mg and a maintenance dose of 50 mg q12h for tigecycline. Three milliliters of venous blood were collected before and after the seventh administration to measure the peak and trough concentrations of the drugs.

[2] = Stability of analytes in spiked plasma samples under storage conditions; format: in vitro ADME, human; settings: for Measured value, Stored at -80℃ for 7 days / Measured value, Automatic sampler 15℃ for 24 h / Measured value, Freeze-thaw for 3 cycles / Measured value, At 4℃ for 12 h / Measured value, At room temperature for 6 h: HPLC-MS/MS, n = 5; for Measured value, Automatic sampler 15℃ for 24 h: automatic sampler 15 ℃ 24 h; for Measured value, Freeze-thaw for 3 cycles: frozen at -80 °C and thawed at room temperature; for Measured value, At 4℃ for 12 h: refrigerator 4 °C 12 h
Procedure: Plasma samples with low, medium, and high mass concentrations were prepared (the mass concentrations of colistin sulfate were 0.1, 1, and 8 µg/mL, respectively, and those of tigecycline were 0.05, 0.5, and 4 µg/mL, respectively). Five replicates of each concentration were prepared and placed in a refrigerator at 4 °C for 12 h, at room temperature for 6 h, and in an automatic sampler at 15 ℃ for 24 h. The samples were, on three occasions, frozen at − 80 °C and thawed at room temperature, and then placed in a − 80 °C refrigerator for seven days. The concentrations and RSDs of colistin sulfate and tigecycline in the plasma samples were calculated based on the accompanying standard curve of the day to evaluate their stabilities.

[3] = patient 1 (BMI 27.04 kg/m^2, CrCL 107 ml/min, ALB 33.8 g/L)
[4] = patient 2 (BMI 27.69 kg/m^2, CrCL 36 ml/min, ALB 30.35 g/L)
[5] = patient 3 (BMI 23.88 kg/m^2, CrCL 90 ml/min, ALB 26.80 g/L)
[6] = patient 4 (BMI 18.72 kg/m^2, CrCL 111 ml/min, ALB 32.50 g/L)
[7] = patient 5 (BMI 22.14 kg/m^2, CrCL 84 ml/min, ALB 28.00 g/L)
[8] = patient 6 (Femaee, BMI 19.3 kg/m^2, CrCL 161 ml/min, ALB 35.3 g/L)
[9] = patient 7 (BMI 24.16 kg/m^2, CrCL 59 ml/min, ALB 36.72 g/L)
[10] = patient 8 (BMI 27.44 kg/m^2, CrCL 98 ml/min, ALB 33.30 g/L)
[11] = patient 9 (BMI 20.91 kg/m^2, CrCL 106 ml/min, ALB 32.71 g/L)
[12] = patient 10 (BMI 21.95 kg/m^2, CrCL 129 ml/min, ALB 31.89 g/L)
[13] = patient 11 (BMI 22.51 kg/m^2, CrCL 27 ml/min, ALB 27.10 g/L)
[14] = patient 12 (BMI 23.71 kg/m^2, CrCL 170 ml/min, ALB 32.50 g/L)
[15] = plasma QC high, nominal colistin sulfate 8 µg/mL, tigecycline 4 µg/mL
[16] = plasma QC low, nominal colistin sulfate 0.1 µg/mL, tigecycline 0.05 µg/mL
[17] = plasma QC medium, nominal colistin sulfate 1 µg/mL, tigecycline 0.5 µg/mL

In the case of `CN(C)c1cc(NC(=O)CNC(C)(C)C)c(O)c2c1C[C@H]1C[C@H]3[C@H](N(C)C)C(O)=C(C(N)=O)C(=O)[C@@]3(O)C(O)=C1C2=O` [Tigecycline, tigecycline], the “Tigecycline Peak concentration” value [1, 3] is reported as 1.72 µg/mL, the “Tigecycline Trough concentration” value [1, 3] is reported as 0.79 µg/mL and the “Tigecycline Peak concentration” value [1, 4] is reported as 1.68 µg/mL. The “Tigecycline Trough concentration” value [1, 4] was 0.81 µg/mL, the “Tigecycline Peak concentration” value [1, 5] was 1.67 µg/mL and the “Tigecycline Trough concentration” value [1, 5] was 0.77 µg/mL. For the same molecule, the “Tigecycline Peak concentration” value [1, 6] was 1.47 µg/mL, the “Tigecycline Trough concentration” value [1, 6] was 0.69 µg/mL and the “Tigecycline Peak concentration” value [1, 7] was 1.17 µg/mL. For the same molecule, the “Tigecycline Trough concentration” value [1, 7] was 0.58 µg/mL, the “Tigecycline Peak concentration” value [1, 8] was 1.11 µg/mL and the “Tigecycline Trough concentration” value [1, 8] was 0.66 µg/mL. For the same molecule, the “Tigecycline Peak concentration” value [1, 9] was 1.01 µg/mL, the “Tigecycline Trough concentration” value [1, 9] was 0.58 µg/mL and the “Tigecycline Peak concentration” value [1, 10] was 0.92 µg/mL. For the same molecule, the “Tigecycline Trough concentration” value [1, 10] was 0.63 µg/mL, the “Tigecycline Peak concentration” value [1, 11] was 1.22 µg/mL and the “Tigecycline Trough concentration” value [1, 11] was 0.65 µg/mL. The “Tigecycline Peak concentration” value [1, 12] was 1.08 µg/mL, the “Tigecycline Trough concentration” value [1, 12] was 0.33 µg/mL and the “Tigecycline Peak concentration” value [1, 13] was 0.99 µg/mL. For the same molecule, the “Tigecycline Trough concentration” value [1, 13] was 0.25 µg/mL, the “Tigecycline Peak concentration” value [1, 14] was 1.78 µg/mL and the “Tigecycline Trough concentration” value [1, 14] was 0.48 µg/mL. For the same molecule, the “Measured value, Stored at -80℃ for 7 days” value (“Measured value, Stored” for short) ([2]; plasma QC high, nominal colistin sulfate 8 µg/mL, tigecycline 4 µg/mL, -80 °C 7 days) was 4.30 ± 0.03 µg/mL, the “Measured value, Automatic sampler 15℃ for 24 h” value (“Measured value … for 24 h” for short) [2, 15] was 4.00 ± 0.26 µg/mL and the “Measured value, Freeze-thaw for 3 cycles” value [2, 15] was 3.82 ± 0.45 µg/mL. For the same molecule, the “Measured value, At 4℃ for 12 h” value [2, 15] was 3.93 ± 0.36 µg/mL, the “Measured value, At room temperature for 6 h” value (“Measured value … for 6 h” below) ([2]; plasma QC high, nominal colistin sulfate 8 µg/mL, tigecycline 4 µg/mL, room temperature 6 h) was 4.87 ± 0.07 µg/mL and the “Measured value, Stored” value ([2]; plasma QC low, nominal colistin sulfate 0.1 µg/mL, tigecycline 0.05 µg/mL, -80 °C 7 days) was 0.05 ± 0.00 µg/mL. For the same molecule, the “Measured value … for 24 h” value [2, 16] was 0.05 ± 0.00 µg/mL, the “Measured value, Freeze-thaw for 3 cycles” value [2, 16] was 0.05 ± 0.00 µg/mL and the “Measured value, At 4℃ for 12 h” value [2, 16] was 0.05 ± 0.00 µg/mL. For the same molecule, the “Measured value … for 6 h” value ([2]; plasma QC low, nominal colistin sulfate 0.1 µg/mL, tigecycline 0.05 µg/mL, room temperature 6 h) was 0.05 ± 0.00 µg/mL, the “Measured value, Stored” value ([2]; plasma QC medium, nominal colistin sulfate 1 µg/mL, tigecycline 0.5 µg/mL, -80 °C 7 days) was 0.46 ± 0.03 µg/mL and the “Measured value … for 24 h” value [2, 17] was 0.49 ± 0.03 µg/mL. The “Measured value, Freeze-thaw for 3 cycles” value [2, 17] was 0.52 ± 0.04 µg/mL, the “Measured value, At 4℃ for 12 h” value [2, 17] was 0.46 ± 0.01 µg/mL and the “Measured value … for 6 h” value ([2]; plasma QC medium, nominal colistin sulfate 1 µg/mL, tigecycline 0.5 µg/mL, room temperature 6 h) was 0.54 ± 0.03 µg/mL. The “stability under the above conditions” value ([2]; plasma samples, 4 °C 12 h, room temperature 6 h, autosampler 15 ℃ 24 h, 3 freeze-thaw cycles, -80 °C 7 days) was “good stability”.
